The values that follow come from patent publication US11208416B2, “Selective inhibitors of protein arginine methytransterase 5 (PRMT5)” (Prelude Therapeutics, Incorporated, priority 2017, dated 2021).

Experiment [1] relates to sDMA. The experiment in a line: sDMA levels in tumor samples of Granta-519 mouse xenograft (Western blot). The experiment is classed as in vivo. The settings on record: 50 mg/kg orally QD. How it is done: Granta-519 cells was maintained in DMEM medium supplemented with 10% fetal bovine serum and 2 mM L-Glutamine at 37° C. in an atmosphere of 5% CO2 in air. Cells in exponential growth phase were harvested and 1×10^7 cells in 0.1 mL of PBS with Matrigel (1:1) were injected subcutaneously at the right lower flank region of each mouse for tumor development. The treatments were started when the mean tumor size reaches approximately 300-400 mm^3. […] Example 47 or vehicle (0.5% Na CMC+0.5% Tween80, suspension) were administered orally (QD for Example 47, QD for vehicle) at a dose of 30 mg/kg and 50 mg/kg for 19 and 16 days, respectively. Body weights and tumor size were measured every 3 to 4 days after randomization. Animals were euthanized 12 hours after last dosing, and blood and tumor samples were collected for analysis.
To measure sDMA levels in tumor samples, tumors from each mouse were weighted and homogenized in RIPA buffer supplemented with protease inhibitor (cOmplete™ EDTA-free Protease Inhibitor Cocktail, Roche). Lysate were centrifuged at 14,000 rpm for 30 min at 4° C. to remove debris. Total protein concentrations of lysate were determined by BCA assay (ThermoFisher Scientific, Catalog #: 23225). Equal amount of total proteins from each tumor were separated on SDS-PAGE gel, and sDMA levels were determined by WB as described previously.
In general terms: Immunoblotting shows a protein as a band on a membrane.

The subject of experiment [2] is Symmetric Di-Methyl Arginine (sDMA). As to the kind of experiment: Western blot for sDMA marks in Granta cells (enzyme inhibition IC50). Type of experiment: cell-based. To be noted: Homo sapiens, 72 h; Granta-519 cell line, 3 days.
Experiment [3] deals with Granta-519 cells. As to the kind of experiment: Cell proliferation assay on Granta-519 cells (CCK-8). Type of experiment: cell-based. The settings on record: Homo sapiens, 240 h; Granta-519 cell line, day 10; read-out: Prolif. IC50. How it is done: Cell Proliferation Assay to Determine IC50 on Granta-519 Cells
Granta-519 cells were maintained in PRMI 1640 (Corning Cellgro, Catalog #: 10-040-CV) medium supplemented with 10% v/v FBS (GE Healthcare, Catalog #: SH30910.03). Compounds were dissolved in DMSO to make 10 mM stocks and stored at −20° C. Nine-point, 3-fold serial dilutions were made with DMSO with top concentration at 1 mM (working stocks).
On day of experiment, compound working stocks were further diluted at 1:50 with fresh medium in 96 well plate, and 10 μL of diluted drugs were added to a new 96 well plate for proliferation assay. Cells growing at exponential phase were spun down at 1500 rpm for 4 min and resuspend in fresh medium to reach a density of 0.5×10^6 cells/ml. 200 ul of cells were added to 96 well plate containing diluted drugs and incubated for 3 days. DMSO was used a vehicle control.
One day 3, 10 μL of Cell Counting Kit-8 (CCK-8, Jojindo, CK04-13) solution was added to a new 96 well plate. […] Plates were incubated in CO2 incubator for 2 hours and OD450 values were measured with a microplate reader (iMark microplate reader, Bio-Rad). […]
Percentage of viable cells, relative to DMSO vehicle control, were calculated and plotted in Graphpad Prism ([Inhibitor] vs. normalized response−Variable slope) to determine proliferation IC50 values on day 10.

Experiment [4] deals with PRMT5/MEP50 complex (Homo sapiens (Human), UniProt O14744). The experiment in a line: Biochemical assay, PRMT5/MEP50 methylation of histone H2A with 3H-SAM. To be noted: histone H2A 5 μM, PRMT5/MEP50 5 nM. On the procedure: Biochemical Assay Protocol
Chain of PRMT5/MEP50 complex (O14744 whole entry): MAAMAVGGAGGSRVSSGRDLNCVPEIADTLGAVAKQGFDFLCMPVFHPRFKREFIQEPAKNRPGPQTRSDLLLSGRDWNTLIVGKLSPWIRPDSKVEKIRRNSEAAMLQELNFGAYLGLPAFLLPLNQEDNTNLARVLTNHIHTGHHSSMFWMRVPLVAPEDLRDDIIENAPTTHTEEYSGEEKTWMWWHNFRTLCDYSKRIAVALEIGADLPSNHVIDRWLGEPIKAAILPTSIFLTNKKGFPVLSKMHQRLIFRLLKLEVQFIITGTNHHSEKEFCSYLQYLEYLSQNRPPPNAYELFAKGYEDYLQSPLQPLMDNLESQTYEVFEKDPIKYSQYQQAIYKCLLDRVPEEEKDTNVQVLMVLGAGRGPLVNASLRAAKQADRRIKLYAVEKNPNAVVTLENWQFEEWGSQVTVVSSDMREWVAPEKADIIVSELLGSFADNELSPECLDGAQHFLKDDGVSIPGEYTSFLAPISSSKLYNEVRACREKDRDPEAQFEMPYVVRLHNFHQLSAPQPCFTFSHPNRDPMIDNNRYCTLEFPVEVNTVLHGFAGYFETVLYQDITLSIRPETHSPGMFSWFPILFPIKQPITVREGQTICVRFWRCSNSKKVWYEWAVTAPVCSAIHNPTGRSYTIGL
Chain of PRMT5/MEP50 complex (Q9BQA1 whole entry partner): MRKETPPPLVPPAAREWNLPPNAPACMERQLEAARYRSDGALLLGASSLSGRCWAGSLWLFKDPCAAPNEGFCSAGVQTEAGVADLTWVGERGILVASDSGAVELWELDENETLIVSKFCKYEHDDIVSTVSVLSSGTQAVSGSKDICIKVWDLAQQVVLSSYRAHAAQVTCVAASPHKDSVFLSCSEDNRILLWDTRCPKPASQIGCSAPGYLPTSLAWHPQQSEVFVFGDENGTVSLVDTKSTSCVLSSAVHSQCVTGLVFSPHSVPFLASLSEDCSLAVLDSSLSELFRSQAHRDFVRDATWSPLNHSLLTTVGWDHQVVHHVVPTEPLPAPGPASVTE
Compounds were solubilized and 3-fold diluted in 100% DMSO. […] Standard reactions were performed in a total volume of […] assay buffer, with histone H2A (5 μM final) as substrate. To this was added the PRMT5/MEP50 complex diluted to provide a final assay concentration of 5 nM and the compounds were allowed to preincubate for 15 to 20 minutes at room temperature. The reaction was initiated by adding S-[3H-methyl]-adenosyl-L-methionine (PerkinElmer) to final concentration of […]. Following a 60 minutes incubation at 30° C., the reaction was stopped by adding 100 μL of 20% TCA. Each reaction was spotted onto filter plate (MultiScreen FB Filter Plate, Millipore), and washed 5 times with PBS buffer, Scintillation fluid was added to the filter plate and read in a scintillation counter. IC50 values were determined by fitting the data to the standard 4 parameters with Hill Slope using GraphPad Prism software.

Take `C[C@@]1(O)[C@@H]([C@H](O)c2ccc(Cl)c(Cl)c2)O[C@@H](n2ccc3c(N)ncnc32)[C@@H]1O` [Example 47, (2R,3S,4R,5R)-5-(4-amino-7H-pyrrolo[2,3-d]pyrimidin-7-yl)-2-((R)-(3,4-dichlorophenyl)(hydroxy)methyl)-3-methyltetrahydrofuran-3,4-diol]: the “sDMA level in tumor” value in experiment [1] is listed as “no detectable sDMA”.
With `CSC[C@H]1O[C@@H](n2ccc3c(N)ncnc32)[C@H](O)[C@]1(C)O` [Example 17, (2S,3S,4R,5R)-5-(4-amino-7H-pyrrolo[2,3-d]pyrimidin-7-yl)-3-methyl-2-((methylthio)methyl)tetrahydrofuran-3,4-diol], the IC50 (in general, the midpoint of a concentration-inhibition curve) in experiment [2] was 1000 nM; in experiment [3] it was 200000 nM; in experiment [4], 900 nM.
`Cc1ncnc2c1ccn2[C@@H]1O[C@H](Cc2ccc(Cl)cc2CO)[C@@](C)(O)[C@H]1O` [Example 64, (2R,3S,4R,5R)-2-[[4-chloro-2-(hydroxymethyl)phenyl]methyl]-3-methyl-5-(4-methylpyrrolo[2,3-d]pyrimidin-7-yl)tetrahydrofuran-3,4-diol] yielded a 50% inhibitory concentration (IC50) in experiment [4] of 1610 nM.
